Legend:
[1] = target: T1, human ERα (Homo sapiens, UniProt P03372); experiment: Fluorescence polarization displacement assay with FITC-estradiol; type: binding; details: fluorescence polarization screen of twelve compounds
T1 sequence (P03372 1-595): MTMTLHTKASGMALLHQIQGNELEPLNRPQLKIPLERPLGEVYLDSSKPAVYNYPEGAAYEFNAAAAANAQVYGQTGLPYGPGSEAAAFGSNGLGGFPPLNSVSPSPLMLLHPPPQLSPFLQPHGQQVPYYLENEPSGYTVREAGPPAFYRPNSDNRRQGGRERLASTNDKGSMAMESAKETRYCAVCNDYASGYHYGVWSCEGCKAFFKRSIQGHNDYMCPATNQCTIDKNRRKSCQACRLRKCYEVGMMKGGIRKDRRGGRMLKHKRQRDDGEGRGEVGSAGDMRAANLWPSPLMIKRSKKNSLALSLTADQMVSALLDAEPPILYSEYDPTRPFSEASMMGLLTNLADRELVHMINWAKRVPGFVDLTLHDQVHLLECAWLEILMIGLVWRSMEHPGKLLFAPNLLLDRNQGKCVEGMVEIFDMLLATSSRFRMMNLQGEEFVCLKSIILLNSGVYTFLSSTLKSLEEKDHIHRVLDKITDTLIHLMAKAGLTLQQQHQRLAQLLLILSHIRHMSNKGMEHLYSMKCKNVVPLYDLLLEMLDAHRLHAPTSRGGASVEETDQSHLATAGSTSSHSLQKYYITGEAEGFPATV

[2] = target: ERβ (Homo sapiens, UniProt Q92731); experiment: Cell-based ERβ luciferase reporter luminescence assay, agonist mode; details: read-out: ERβ agonist IC50; luciferase reporter cells, 22 h, duplicate
ERβ, sequence (Q92731 whole entry): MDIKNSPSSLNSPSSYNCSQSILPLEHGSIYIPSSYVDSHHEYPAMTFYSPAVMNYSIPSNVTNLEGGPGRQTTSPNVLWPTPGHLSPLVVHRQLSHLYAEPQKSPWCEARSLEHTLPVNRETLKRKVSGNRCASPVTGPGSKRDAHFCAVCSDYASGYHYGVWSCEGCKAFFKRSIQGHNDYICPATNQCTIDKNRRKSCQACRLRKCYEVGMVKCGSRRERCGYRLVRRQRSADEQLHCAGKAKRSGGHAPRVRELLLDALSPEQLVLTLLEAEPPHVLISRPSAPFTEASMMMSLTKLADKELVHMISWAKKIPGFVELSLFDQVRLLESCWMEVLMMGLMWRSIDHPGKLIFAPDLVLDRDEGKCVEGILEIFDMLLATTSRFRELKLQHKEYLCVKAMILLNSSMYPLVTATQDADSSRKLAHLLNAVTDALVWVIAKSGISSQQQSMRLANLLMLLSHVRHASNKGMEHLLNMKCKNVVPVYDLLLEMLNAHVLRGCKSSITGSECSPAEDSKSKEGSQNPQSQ

Row | IC50 [2] [nM] | SMILES | Affinity for ERα at concentrations as high as 1 μM (in words) [1]
1 | 5.4 ± 0.3 | OC[C@H]1CCC[C@@H](c2ccc(O)cc2)CC1 (relative stereo) [Compound 18, cis-1-Hydroxymethyl-4-(4′-hydroxyphenyl)-cycloheptane] | significant affinity
2 |  | CCCOC(=O)C1CC[C@H]2[C@@H]3CCc4cc(O)ccc4[C@H]3CC[C@]12C (stereo partly drawn) [Compound 4, n-Propyl 3-hydroxyestra-1,3,5(10)-triene-17-carboxylate] | significant affinity
3 |  | CC[C@H](C)C1=CC[C@H]2[C@@H]3CCc4cc(O)ccc4[C@H]3CC[C@]12C [Compound 7, (20S) 3-Hydroxy-19,24-dinorchola-1,3,5(10),16-tetraene] | significant affinity
4 |  | C[C@@H](CCO)C1=CC[C@H]2[C@@H]3CCc4cc(O)ccc4[C@H]3CC[C@]12C [Compound 11, (20S) 3-Hydroxy-19,24-Dinorchola-1,3,5(10),16-tetraen-23-ol] | significant affinity
5 |  | CC1C[C@H](C)C2(CC[C@H]3[C@@H]4CCc5cc(O)ccc5[C@H]4CC[C@@]32C)O1 (stereo partly drawn) [Compound 13, 17,23-Epoxy-3-hydroxy-19-norchola-1,3,5(10)-triene] | significant affinity
